Results: ChEMBL document CHEMBL1201862, “PubChem BioAssay data set” (2004)
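Growth conditions: 96-well plates. Treatment: test compound, 48 hours, 5 concentrations. Analysis: linear interpolation between bracketing concentrations; unreached endpoints set to highest concentration. At the GI50, growth is halved.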 The source made the active and inactive calls. No stated cut-off is given here; in the data, active = GI50 up to about 1.1 µM and inactive = higher.

Experiments:
Assay in all cases: inhibition of tumour cell growth, NCI panel, 48 h
HCC 2998 = system: HCC 2998
SK-OV-3 = system: SK-OV-3
HCT-116 = system: HCT-116
CCRF-CEM = system: CCRF-CEM
SK-MEL-2 = system: SK-MEL-2
NCI-H23 = system: NCI-H23
OVCAR-4 = system: OVCAR-4
IGROV-1 = system: IGROV-1
SK-MEL-28 = system: SK-MEL-28
COLO 205 = system: COLO 205
RPMI-8226 = system: RPMI-8226
U-251 = system: U-251
OVCAR-5 = system: OVCAR-5
SNB-75 = system: SNB-75
A498 = system: A498
SW-620 = system: SW-620
HOP-62 = system: HOP-62
RXF 393 = system: RXF 393
SN12C = system: SN12C
SF-295 = system: SF-295

Structure (SMILES)	GI50 (HCC 2998)	GI50 (SK-OV-3)	GI50 (HCT-116)	GI50 (CCRF-CEM)	GI50 (SK-MEL-2)	GI50 (NCI-H23)	GI50 (OVCAR-4)	GI50 (IGROV-1)	GI50 (SK-MEL-28)	GI50 (COLO 205)	GI50 (RPMI-8226)	GI50 (U-251)	GI50 (OVCAR-5)	GI50 (SNB-75)	GI50 (A498)	GI50 (SW-620)	GI50 (HOP-62)	GI50 (RXF 393)	GI50 (SN12C)	GI50 (SF-295)
O=C1c2ccccc2N1C(=O)c1ccccc1[N+](=O)[O-]	> 100 µM (inactive)	> 100 µM (inactive)	36.1 µM (inactive)	48.9 µM (inactive)	90.8 µM (inactive)	> 100 µM (inactive)	30 µM (inactive)	> 100 µM (inactive)	> 100 µM (inactive)	61.1 µM (inactive)	64.4 µM (inactive)	90.6 µM (inactive)	> 100 µM (inactive)	53.3 µM (inactive)	> 100 µM (inactive)	> 100 µM (inactive)	45.4 µM (inactive)	–	–	–
Cc1cc(NS(=O)(=O)c2ccc(NC(=O)c3cccc4c(Nc5ccc(S(N)(=O)=O)cc5)c5ccccc5nc34)cc2)no1	> 100 µM (inactive)	> 100 µM (inactive)	> 100 µM (inactive)	85.9 µM (inactive)	> 100 µM (inactive)	> 100 µM (inactive)	> 100 µM (inactive)	–	> 100 µM (inactive)	–	87.9 µM (inactive)	87.7 µM (inactive)	> 100 µM (inactive)	60 µM (inactive)	> 100 µM (inactive)	–	> 100 µM (inactive)	> 100 µM (inactive)	> 100 µM (inactive)	–
CC(=O)ON1C(=O)c2cccc3cccc(c23)C1=O	31.6 µM (inactive)	34.4 µM (inactive)	6.93 µM (inactive)	9.66 µM (inactive)	18.3 µM (inactive)	10.4 µM (inactive)	11.7 µM (inactive)	7.28 µM (inactive)	17.9 µM (inactive)	26.8 µM (inactive)	12.7 µM (inactive)	14.8 µM (inactive)	35.1 µM (inactive)	–	25.8 µM (inactive)	5.62 µM (inactive)	22.8 µM (inactive)	7.23 µM (inactive)	–	20.9 µM (inactive)
NC(=O)Oc1ccccc1 [CARBAMIC ACID PHENYL ESTER]	> 100 µM (inactive)	> 100 µM (inactive)	> 100 µM (inactive)	> 100 µM (inactive)	–	> 100 µM (inactive)	> 100 µM (inactive)	–	> 100 µM (inactive)	> 100 µM (inactive)	–	> 100 µM (inactive)	–	> 100 µM (inactive)	> 100 µM (inactive)	> 100 µM (inactive)	–	> 100 µM (inactive)	> 100 µM (inactive)	> 100 µM (inactive)
O=C(NO)c1coc2ccccc2c1=O	32.7 µM (inactive)	12.3 µM (inactive)	–	> 100 µM (inactive)	74.3 µM (inactive)	> 100 µM (inactive)	> 100 µM (inactive)	> 100 µM (inactive)	> 100 µM (inactive)	39.4 µM (inactive)	> 100 µM (inactive)	> 100 µM (inactive)	> 100 µM (inactive)	41.9 µM (inactive)	43.2 µM (inactive)	> 100 µM (inactive)	–	72.9 µM (inactive)	> 100 µM (inactive)	> 100 µM (inactive)
CC(C)(C)OC(=O)NCC(=O)NC1c2ccsc2/C(=N/O)[C@H]1O (stereo partly drawn)	93.3 µM (inactive)	> 100 µM (inactive)	> 100 µM (inactive)	> 100 µM (inactive)	> 100 µM (inactive)	> 100 µM (inactive)	> 100 µM (inactive)	> 100 µM (inactive)	> 100 µM (inactive)	> 100 µM (inactive)	–	> 100 µM (inactive)	> 100 µM (inactive)	–	> 100 µM (inactive)	> 100 µM (inactive)	> 100 µM (inactive)	> 100 µM (inactive)	> 100 µM (inactive)	> 100 µM (inactive)
Cc1ccc(NC(=O)c2cccc([N+](=O)[O-])c2O)c(C)c1	40.4 µM (inactive)	22.9 µM (inactive)	28.6 µM (inactive)	17.9 µM (inactive)	7.73 µM (inactive)	23 µM (inactive)	11.6 µM (inactive)	9.84 µM (inactive)	6.97 µM (inactive)	23.9 µM (inactive)	11.6 µM (inactive)	24 µM (inactive)	20.5 µM (inactive)	23.5 µM (inactive)	12.9 µM (inactive)	28.4 µM (inactive)	33.3 µM (inactive)	–	15.8 µM (inactive)	20.1 µM (inactive)
O=C1OC(c2ccc(O)c(F)c2)(c2ccc(O)c(F)c2)c2cccc3cccc1c23	–	> 25 µM (inactive)	> 25 µM (inactive)	> 25 µM (inactive)	> 25 µM (inactive)	> 25 µM (inactive)	0.0601 µM (active)	> 25 µM (inactive)	0.0643 µM (active)	1.26 µM (inactive)	17.2 µM (inactive)	> 25 µM (inactive)	> 25 µM (inactive)	–	> 25 µM (inactive)	> 25 µM (inactive)	> 25 µM (inactive)	> 25 µM (inactive)	1.34 µM (inactive)	23.2 µM (inactive)
COCCOCOc1ccc(OCc2ccccc2)cc1	> 82.6 µM (inactive)	> 100 µM (inactive)	> 100 µM (inactive)	36.6 µM (inactive)	> 82.6 µM (inactive)	> 71 µM (inactive)	35.7 µM (inactive)	> 100 µM (inactive)	> 100 µM (inactive)	> 100 µM (inactive)	> 49.5 µM (inactive)	> 85.9 µM (inactive)	> 100 µM (inactive)	–	> 58.5 µM (inactive)	> 100 µM (inactive)	> 100 µM (inactive)	> 100 µM (inactive)	> 100 µM (inactive)	> 100 µM (inactive)
COc1cc2c(cc1Oc1ccc(OC)c3c1CC1c4c(cc(OC)c(OC)c4-3)CCN1C)CC1c3c(cc(OC)c(OC)c3-2)CCN1C (stereo not drawn)	2.41 µM (inactive)	17.8 µM (inactive)	1.77 µM (inactive)	2.45 µM (inactive)	1.74 µM (inactive)	10.7 µM (inactive)	2.74 µM (inactive)	3.86 µM (inactive)	1.82 µM (inactive)	1.48 µM (inactive)	0.221 µM (active)	1.79 µM (inactive)	6.05 µM (inactive)	2.26 µM (inactive)	2.77 µM (inactive)	1.95 µM (inactive)	17.1 µM (inactive)	1.52 µM (inactive)	6.59 µM (inactive)	2.54 µM (inactive)
COc1cc2c(cc1OC)C(C1(O)CCCCC1)NCC2 (stereo not drawn)	> 100 µM (inactive)	> 100 µM (inactive)	> 100 µM (inactive)	> 100 µM (inactive)	> 100 µM (inactive)	> 100 µM (inactive)	–	> 100 µM (inactive)	> 100 µM (inactive)	> 100 µM (inactive)	> 100 µM (inactive)	> 100 µM (inactive)	> 100 µM (inactive)	> 100 µM (inactive)	–	> 100 µM (inactive)	> 100 µM (inactive)	> 100 µM (inactive)	> 100 µM (inactive)	> 100 µM (inactive)
COc1ccc(-c2nnc(-c3ccncc3)o2)cc1	–	> 100 µM (inactive)	> 100 µM (inactive)	> 100 µM (inactive)	> 100 µM (inactive)	> 100 µM (inactive)	> 100 µM (inactive)	> 100 µM (inactive)	> 100 µM (inactive)	> 100 µM (inactive)	> 100 µM (inactive)	> 100 µM (inactive)	> 100 µM (inactive)	> 100 µM (inactive)	> 100 µM (inactive)	–	> 100 µM (inactive)	> 100 µM (inactive)	> 100 µM (inactive)	> 100 µM (inactive)
COc1cc([N+](=O)[O-])ccc1NC(=O)c1cccc([N+](=O)[O-])c1O	19 µM (inactive)	23.1 µM (inactive)	26.4 µM (inactive)	23.2 µM (inactive)	17.5 µM (inactive)	20.4 µM (inactive)	23.4 µM (inactive)	14.1 µM (inactive)	21.6 µM (inactive)	16 µM (inactive)	10.3 µM (inactive)	40.1 µM (inactive)	41.3 µM (inactive)	21.1 µM (inactive)	17.9 µM (inactive)	30.8 µM (inactive)	36.6 µM (inactive)	–	14.7 µM (inactive)	23.4 µM (inactive)
Cc1ccccc1-c1nc2c(C(=O)NCCN(C)C)cccc2[nH]1	40.3 µM (inactive)	46.5 µM (inactive)	29.6 µM (inactive)	27 µM (inactive)	> 85.3 µM (inactive)	57.7 µM (inactive)	49.1 µM (inactive)	58.5 µM (inactive)	> 93.3 µM (inactive)	18.5 µM (inactive)	27.7 µM (inactive)	34.5 µM (inactive)	40.2 µM (inactive)	39.3 µM (inactive)	42.3 µM (inactive)	26.5 µM (inactive)	31.5 µM (inactive)	78.9 µM (inactive)	40.4 µM (inactive)	34.1 µM (inactive)
